Reference: patent EP0452507A1, “MEDICINE COMPRISING TOCOPHERYL GLYCOSIDE AS ACTIVE INGREDIENT” (NIPPON HYPOX LABORATORIES INCORPORATED, priority 1989, dated 1991)
Where two headings read alike, the source gives them in different places.

Tests used:
[1] = test system: carrageenin-induced inflammation; assay: carrageenin-induced inflammation, right hind paw swelling by volumetry; format: in vivo, rats; settings: Example 7, Fig. 6; for inhibition activity against carrageenin-induced inflammation: VIE-MAN 10, 30, 100 mg/kg, depending upon its dose, comparators 10 mg/kg, intraperitoneally
Procedure: Six groups each consisting of five male SD rats weighing 180 to 220 g were used (total 30 rats), and each rat was measured for a size of the subplantar region1 of the right hind paw.
In order to induce carrageenin-induced inflammation, 0.1 ml/rat of a physiological saline solution of 1 % X-carrageenin was prepared.
One out of the six groups was used as Control group. A physiological saline solution of 10 % Nikkol was administered intraperitoneally to each rat of this group, and 0.5 hours after the administration of the physiological saline solution of 10 % Nikkol, 0.1 ml of the physiological saline solution of 1 % X-carrageenin was administered intracutaneously into the subplantar region of the right hind paw of each rat. Then, 0.5, 1, 2, 3 and 4 hours after the administration of […] of the physiological saline solution of 1 % X-carrageenin, the swelling on the subplantar region of the right hind paw of each rat was measured by volumetry, arid the average of swelling ratios of the group in every measurement was determined on the basis of the measurement values of the sizes of subplantar regions of the right hind paws of the rats obtained before the administration of the physiological saline solution of 10 % Nikkol solution.
The procedure for Control group was repeated except that a physiological saline solution of 10 % Nikkol containing VIE-MAN in place of the physiological saline solution of 10 % Nikkol was administered intraperitoneally in such a dose that the amount of VIE-MAN was 10 mg/kg.
The procedure for Control group was repeated except that a physiological saline solution of 10 % Nikkol containing VIE-MAN in place of the physiological saline solution of 10 % Nikkol was administered intraperitoneally in such a dose that the amount of VIE-MAN was 30 mg/kg.
The procedure for Control group was repeated except that a physiological saline solution of 10 % Nikkol containing VIE-MAN in place of the physiological saline solution of 10 % Nikkol was administered intraperitoneally in such a dose that the amount of VIE-MAN was 100 mg/kg.
The procedure for Example groups ⑭, ⑮ and ⑯ was repeated except that a physiological saline solution of 10 % Nikkol containing cortisone acetate which was a steroidal anti-inflammatory preparation (immunosuppressive preparation) in place of the physiological saline solution of 10 % Nikkol containing VIE-MAN was administered intraperitoneally in such a dose that the amount of the cortisone acetate was 10 mg/kg.
The procedure for Example groups ⑭, ⑮ and ⑯ was repeated except that a physiological saline solution of 10 % Nikkol containing indomethacin which was a nonsteroidal anti-inflammatory preparation (antipyretic analgesic antiphlogistic preparation) in place of the physiological saline solution of 10 % Nikkol containing VIE-MAN was administered intraperitoneally in such a dose that the amount of the indomethacin was 10 mg/kg.

IgE antibody = format: in vivo, rats; settings: for IgE antibody amount in serum, Average value: group average, maximum dilution of serum showing positive reaction
Procedure: At first, 20 male SD rats weighing 180 to 220 g were prepared. Egg-white albumin in an amount of 1 mg per rat was prepared as an antigen to induce the IgE antibody-antigen mediating immune response. Further, a mixture of 20 mg/rat of aluminum hydroxide with 0.6 mi/rat of pertussis vaccine was prepared as an immune aid (adjuvant).
Then, the above antigen and the above adjuvant were equally administered intracutaneously into the four footpads of each rat for sensitization.
24 Hours after the sensitization, the footpad swelling of each rat was measured by volumetry to determine the swelling ratio (unit: %). Then, the rats were separated into four groups each consisting of 5 rats such that the average swelling ratio of one group was nearly equal to that of another group.
Thereafter, one of the four groups was used as Control group, and a physiological saline solution of 10 % Nikkol (trade name, dissolving aid, supplied by Nikko Chemical Co., Ltd.) was administered intraperitoneally to each rat for the 11 consecutive days after the group separation, and on 15th day after the group separation, the serum of each rat was collected, and measured for an IgE antibody amount by means of a 48-hour homologous PCA reaction (passive cutaneous anaphylaxis reaction) as an index. In addition, the IgE antibody amount is shown in terms of a maximum dilution (unit: %) of serum showing positive reaction (blue spot having a diameter of not less than 5 mm).
Two groups of the remaining three groups were used as Example groups ⑥ and 0. A physiological saline solution of 10 % Nikkol containing VIE-MAN was administered intraperitoneally to each rat of Example group ⑥ in such a dose that the amount of VIE-MAN was 30 mg/kg/day for 11 days after the group separation. And, a physiological saline solution of 10 % Nikkol containing VIE-MAN was administered intraperitoneally to each rat of Example group 0 every other day (number of days for administration: 6 days) in such a dose that the amount of VIE-MAN was 100 mg/kg/day for 11 days after the group separation. Then, on 15th day after the group separation, the serum of each rat was collected, and measured for an IgE antibody amount in the same manner as that for Control group.
One remaining group of the four groups was used as Comparative Example group @. A physiological saline solution of 10 % Nikkol containing hydrocortisone which was an adrenocortical hormone preparation was administered intraperitoneally to each rat in such a dose that the amount of the hydrocortisone was 10 mg/kg/day for the consecutive 11 days after the group separation. Then, on 15th day after the group separation, the serum of each rat was collected, and measured for an IgE antibody amount in the same manner as that for Example groups 6 and ⑦.

[2] = test system: delayed-type hypersensitivity; assay: picryl chloride-induced delayed-type hypersensitivity, ear swelling ratio; format: in vivo, mice; settings: for swelling ratio (ear): versus Control group
Procedure: 76 Male mice (C57BU6Ncrj) weighing 18 to 20 g were used. The abdominal portion of each mouse was shaved such that the shaved portion was about 1 cm^2. Thereafter, 20 µl of an ethanol solution of 7 % picryl chloride was applied to the shaved portions for sensitization.
Eighteen out of the 76 mice were used as Control group. A physiological saline solution containing 10 % Nikkol (Nikkol: trade name, dissolving aid, supplied by Nikko Chemical Co., Ltd.) was administered intraperitoneally to the 18 mice for the consecutive 5 days after the sensitization, and ear thickness of each of these 18 mice was measured on the eighth day after the sensitization. Thereafter, 20 µl of an olive oil solution of 1 % picryl chloride was applied to the ear of each of the mice to cause delayed-type hypersensitivity.
The above pharmaceutical solutions were administered intraperitoneally at the above-described doses for the five consecutive days after the sensitization, and ear thickness of each of these mice was measured on the eighth day after the sensitization. Thereafter, 20 µl of an olive oil solution of 1 % picryl chloride was applied to the ear of each of the mice to cause delayed-type hypersensitivity.
24 Hours after the delayed-type hypersensitivity was induced, the swelling of the ear of each of the mice of Control group and Example groups ①, ②and③ was measured with a dial thickness gauge. On the basis of the values of the ear thickness measured before the application of the olive oil solution of 1 % picryl chloride, the swelling ratio of each of Example groups ①, ② and ③ and Control group was determined.
And, the swelling ratio of the mice was determined.
At first, the abdominal portion of each of forty ICR male mice weighing 20 to 25 g was shaved such that the shaved portion was about 1 cm^2. Thereafter, 20 µl of an ethanol solution of 7 % picryl chloride was applied to the shaved portions for sensitization.

[3] = Example 2, Fig. 2, ICR male mice, 100 mg/kg/day intraperitoneally
[4] = Example 2, ICR mice, 100 mg/kg/day intraperitoneally

Structure (SMILES)	inhibition activity against carrageenin-induced inflammation [1]	inhibition activity against carrageenin-induced inflammation compared with VIE-MAN ([1]; comparators 10 mg/kg intraperitoneally)	inhibition activity against the IgE antibody production (IgE antibody; same test as Example 3 with VIE-GLU in place of VIE-MAN)	swelling ratio (ear) [2, 3]	side effects such as a reduction in body weight [2, 4]	average of swelling ratios ([1]; 10, 30 and 100 mg/kg intraperitoneally, 0.5 hour after administration of 1 % carrageenin solution, versus Control group)	average value of the IgE antibody amounts as a group unit (IgE antibody; 30 mg/kg/day (11 days) or 100 mg/kg/day (6 days) intraperitoneally, versus Control group)	inhibition activity against the IgE antibody production (IgE antibody; Example 3 / Comparative Example 2, VIE-MAN 30 or 100 mg/kg/day, hydrocortisone 10 mg/kg/day, intraperitoneally)	IgE antibody amount in serum, Average value (IgE antibody; 30 mg/kg/day (total 11 days) intraperitoneally)	IgE antibody amount in serum, Average value (IgE antibody; 100 mg/kg/day (total 6 days) intraperitoneally)	delayed-type hypersensitivity prevented and cured ([2]; Example 1, Fig. 1, 10, 30 and 100 mg/kg/day intraperitoneally)	swelling ratio (ear) ([2]; Example 1, Fig. 1, C57BU6Ncrj mice, 10, 30 and 100 mg/kg/day intraperitoneally for 5 days after sensitization, 24 hours after induction)	preventive and therapeutical effect on delayed-type hypersensitivity (comparison) ([2]; Example 1, Fig. 1, VIE-MAN 10, 30, 100 mg/kg/day versus methotrexate 1 mg/kg/day, intraperitoneally)	side effects such as a reduction in body weight ([2]; Example 1, mice, 10, 30 and 100 mg/kg/day intraperitoneally for 5 days)
COc1ccc2c(c1)c(CC(=O)O)c(C)n2C(=O)c1ccc(Cl)cc1 [indomethacin, reference compound]	significant activity at and after 0.5 hour	lower than that of VIE-MAN	–	–	–	–	–	–	–	–	–	–	–	–
Cc1c(C)c2c(c(C)c1OC1OC(CO)C(O)C(O)C1O)CCC(C)(CCCC(C)CCCC(C)CCCC(C)C)O2 (racemic) [VIE-GLU, dl-α-tocopheryl-,8-D-glucoside]	–	–	excellent inhibition activity	significantly lower than that of Control group	not observed	–	–	–	–	–	–	–	–	–
Cc1c(C)c2c(c(C)c1OC1OC(CO)C(O)C(O)C1O)CCC(C)(CCCC(C)CCCC(C)CCCC(C)C)O2 (racemic) [VIE-MAN, dl-a-tocopheryl-a-D-mannoside]	excellent inhibition activity	–	–	significantly lower than that of Control group	not observed	significantly lower than that of swelling ratios of Control group	significantly lower than that of the IgE antibody amounts of Control group	excellent inhibition activity	166.4	128.0	dose-dependently prevented and cured	significantly lower than that of Control group	superior to methotrexate	not observed
